{"source": "paper PMC11134608", "about": "“UBR5 forms ligand-dependent complexes on chromatin to regulate nuclear hormone receptor stability” (Molecular cell, 2023)", "key": {"UBR5-ER": {"system": "UBR5-ER", "assay": "In vitro FLAG-UBR5 pull-down of His-tagged ER", "type": "binding, human", "conditions": "50 μM ER ligand", "protocol": "12 μL of FLAG M2 slurry were equilibrated with binding buffer (25 mM HEPES pH 7.4, 125 mM NaCl, 0.05% TWEEN-20). The resin was pelleted and excess buffer removed. 60 μL of fresh binding buffer was re-added, followed by addition of 15 pmol (2.5 μL ofa6 μM solution) of purified FLAG-UBR5 protein and incubated on a rotating wheel at 4°C for 60–90 minutes. The resin was pelleted, excess buffer removed, and 150 μL fresh binding buffer (supplemented with 50 μM ligand of interest or DMSO) added, followed by 150 pmol protein (binding partner protein of interest) and incubated for another 60 minutes. The resin was pelleted, excess buffer removed and washed with 400 μL of binding buffer (supplemented with ligand of interest or DMSO), and this process was repeated three times. The resin was pelleted, excess buffer removed and 45 μL of binding buffer supplemented with 1 mg/mL 3xFLAG peptide was added to elute proteins over 30 minutes on a rotating wheel at room temperature. The resin was pelleted, and 40 μL of the supernatant was collected and mixed with 12 μL of 5xSDS gel loading buffer. 6 μL of these samples were applied to SDS-PAGE on a 4–20% gradient gel (Biorad). The gel was transferred to a nitrocellulose membrane using the Trans-Blot Turbo Transfer System (Biorad). […]"}, "androgen receptor (AR) [1]": {"system": "androgen receptor (AR)", "conditions": "testosterone, ref [48]-[50]; cited from earlier work", "description": "Instead, it is shuttled […] the nucleus following agonist binding and transcriptional activation.[48]–[50] The hydrophobic cleft of AR has several amino acid differences from other NRs, which preferentially accommodate bulkier FxxLF motifs instead of the classic LxxLL.[51],[52] We hypothesized that these sequence differences might also prevent UBR5-mediated degradation and asked whether altering the hydrophobic cleft in AR could c ..."}, "androgen receptor (AR) [2]": {"system": "androgen receptor (AR)", "assay": "AR fluorescent reporter degradation", "type": "cell-based, human", "conditions": "n = 3; for AR reporter degradation, significance: CI-4AS-1 5, 10, 20 uM", "protocol": "AR reporters with substitutions to the critical set of residues in the hydrophobic cleft (AR V713, V716, V730, and M734) were generated to match those found in RARA, RXRA, or GR. The wild-type AR reporter was not degraded following treatment with the synthetic AR agonist CI-4AS-1. […] Taken together, the data underscore the essentiality of the NR hydrophobic cleft for UBR5 binding and NR degradation.\nCells were analyzed for GFP vs mCherry expression."}, "AR^RARA mutant and UBR5": {"system": "AR^RARA mutant and UBR5", "assay": "Co-immunoprecipitation of UBR5 with AR-RARA mutants", "type": "cell-based, human", "conditions": "± CI-4AS-1 and MG132", "description": "(§1) Blotting was done as described above."}, "GR and UBR5": {"system": "GR and UBR5", "assay": "UBR5/GR interaction in cells (BRET)", "type": "cell-based, human", "conditions": "± dexamethasone, n = 3", "quoted_text": "Bioluminescence resonance energy transfer (BRET) experiments were done using the NanoBRET PPI kit (Promega, N1821) according to manufacturer’s instructions."}, "GR": {"system": "GR", "assay": "GR degradation (western blot A549; GFP-GR reporter)", "type": "cell-based, human", "protocol": "Reporter cell lines were seeded in triplicate at a density of 1 million cells/ml in 100 μl per well in a 96 well plate and measured once. Ligand was added by Digital Dispenser (Tecan), and incubated at 37°C for the appropriate time before reading by flow cytometry. Cells were analyzed for GFP vs mCherry expression. GFP expression was normalized to mCherry signal and ligand treatments were compared to DMSO controls.\nMembranes were blocked for 30 minutes to 1 hour at room temperature in Odyssey Blocking Buffer/PBS (LI-COR Biosciences), and incubated with primary antibodies at 4 °C overnight. Stained membranes were washed three times in Tris-buffered saline with Tween 20 (TBS-T) and incubated for 1 hour at room temperature with secondary IRDye-conjugated antibodies (LI-COR Biosciences). Membranes were washed three times in TBS-T before imaging (Odyssey Imaging System, LI-COR Biosciences)."}, "GR with NCOA2 and UBR5": {"system": "GR with NCOA2 and UBR5", "assay": "Co-immunoprecipitation time course for GR", "type": "cell-based, human", "conditions": "U937 GFP-GR, 0, 6, 12, 16, 24 h dexamethasone", "protocol": "We performed time course co-immunoprecipitation experiments for GR and blotted for NCOA2, GR, and UBR5 at 0, 6, 12, 16, and 24 h following dexamethasone treatment. […] Unlike RARA, which binds constitutively to chromatin, GR is sequestered in the cytoplasm and rapidly translocates to the nucleus following agonist binding.[44],[45]\nas §1"}, "[3]": {"system": "GR and UBR5 on chromatin in A549 cells", "assay": "ChIP-seq of GR and UBR5 in A549 cells", "type": "cell-based, human", "protocol": "Cell lines were expanded (up to 50 million), treated with ligand, and incubated at 37 °C. Cells were pelleted by centrifugation for 5 minutes, washed twice with cold PBS, and resuspended, in 5 ml of room temperature PBS. 20 μl of 0.5M Disuccinimidyl glutarate (DSG) (ThermoFisher), was added and incubated for 30 minutes at room temperature. Cells were pelleted by centrifugation and resuspended in 8.325 ml of PBS and 8.325 ml of 2% formaldehyde and incubated for 30 minutes at room temperature. Cross-linking was quenched by the addition of 1665 μl of 1 M Tris-HCl pH 8.0 and 832.5 μl of 2.5 M glycine. Cells were pelleted and washed twice with PBS. Cross-linked cells were resuspended in LB1 Buffer (50mM HEPES-KOH, pH7.5, 140mM NaCl, 1mM EDTA, 10% Glycerol, 0.5% NP-40, 0.25% Triton X-100 in distilled water) and rotated for 10 minutes at 4C. Cells were pelleted and resuspended in LB2 (10mM Tris-HCl, pH 8.0, 200mM NaCl, 1mM EDTA, 0.5mM EGTA in distilled water) and rotated for 10 minutes at 4C. Cells were pelleted and resuspended in LB3 (10mM Tris-HCL, pH 8.0, 100mM NaCl, 1mM EDTA, 0.5mM EGTA, 0.1% Na-deoxycholate, 0.5% Na-Lauroylsarcosine, 1% Triton X-100, in distilled water) sonicated (Covaris, E220). […] Fragment length and concentrations were assessed using TapeStation (Agilent) and Qubit (ThermoFisher), and libraries were sequenced on an Illumina NextSeq 550 sequencer. […]"}, "[4]": {"system": "dexamethasone-regulated gene expression in A549 cells", "assay": "RNA sequencing of A549 cells", "type": "cell-based, human", "conditions": "A549, 0, 24, 48 h", "protocol": "Cell lines were expanded, treated with ligand, and incubated at 37C. Cells were pelleted by centrifugation for 5 minutes, washed with cold PBS, and RNA was isolated by RNeasy kit (Qiagen) per manufacturer’s instructions. RNA was sent to Novogene for library preparation and sequencing, or prepared for sequencing (NEBNext, New England Biolabs) and sequenced on an Illumina NextSeq 550 sequencer.\nPaired-end reads were aligned to the hg38.p13[81],[82] reference genome with the STAR[83] (v5.2.7b) aligner as part of the RSEM[99] command line tool. Gene transcript abundance was further quantified from aligned fragments using RSEM to generate a gene-by-sample matrix of expected counts. Differential expression was tested, as with the ChIP-seq data, using the DESeq[88],[93]2 and ashr[94] pipeline, this time calculating sample-specific scale factor offset using the method of median-ratio as implemented in the R package EBSeq[100] (v1.36.0). For plotting in heatmaps, genes were selected based on ChIP-seq peak annotation and subset."}}, "data": [{"compound": "C[C@]12CC[C@@H]3c4ccc(O)cc4CC[C@H]3[C@@H]1CC[C@@H]2O", "note": "[estradiol, beta-Estradiol]", "values": [{"measurement": "UBR5-ER interaction", "setting": "UBR5-ER", "result": "induced by estradiol"}]}, {"compound": "C[C@]12CC[C@H]3[C@@H](CCC4=CC(=O)CC[C@@]43C)[C@@H]1CC[C@@H]2O", "note": "[testosterone]", "values": [{"measurement": "AR stability / ligand-induced degradation", "setting": "androgen receptor (AR) [1]", "result": "stabilized by its endogenous ligand testosterone and does not undergo ligand-induced degradation"}]}, {"compound": "CN1C(=O)C=C[C@]2(C)[C@H]3CC[C@]4(C)[C@@H](C(=O)Nc5ccccc5Cl)CC[C@H]4[C@@H]3CC[C@@H]12", "note": "[CI-4AS-1]", "values": [{"measurement": "AR reporter degradation, significance", "setting": "androgen receptor (AR) [2]; AR V713F V730L M734V (RXR matched)", "result": "**** (**** p<0.00005)"}, {"measurement": "AR reporter degradation, significance", "setting": "androgen receptor (AR) [2]; AR V713I V730I M734I (RARA matched)", "result": "** (**p<0.005)"}, {"measurement": "AR reporter degradation, significance", "setting": "androgen receptor (AR) [2]; AR V713I V730L (GR matched)", "result": "**** (**** p<0.00005)"}, {"measurement": "degradation of mutant AR reporters", "setting": "androgen receptor (AR) [2]; hydrophobic cleft matched to RARA, RXRA or GR", "result": "efficiently degraded"}, {"measurement": "degradation of wild-type AR reporter", "setting": "androgen receptor (AR) [2]; wild-type AR", "result": "not degraded"}, {"measurement": "UBR5 binding to AR^RARA mutants", "setting": "AR^RARA mutant and UBR5", "result": "strengthened binding in the presence of agonist"}]}, {"compound": "C[C@@H]1C[C@H]2[C@@H]3CCC4=CC(=O)C=C[C@]4(C)[C@@]3(F)[C@@H](O)C[C@]2(C)[C@@]1(O)C(=O)CO", "note": "[dexamethasone]", "values": [{"measurement": "UBR5 binding to GR in cells", "setting": "GR and UBR5", "result": "promoted binding of UBR5 to GR in cells"}, {"measurement": "effect of UBR5 shRNAs on GR degradation", "setting": "GR; A549 western blot and reporter", "result": "rescued GR degradation"}, {"measurement": "GR reporter degradation with predicted degron (cleft) mutations", "setting": "GR; GFP-GR mutants, likewise mutation of the UBR5 HECT domain", "result": "impaired dexamethasone-induced GR degradation"}, {"measurement": "sequential binding of NCOA2 and UBR5 to GR", "setting": "GR with NCOA2 and UBR5", "result": "GR sequentially bound NCOA2 and then UBR5"}, {"measurement": "GR ChIP-seq peaks", "setting": "[3]; A549, 15 min and 24 h dexamethasone", "result": "strikingly gained 15 min after addition of dexamethasone and subsequently decreased following sustained (24 h) dexamethasone treatment"}, {"measurement": "UBR5 ChIP-seq peaks", "setting": "[3]; A549, 15 min dexamethasone", "result": "strongly increased after 15 min of dexamethasone treatment"}, {"measurement": "effect of UBR5 knockdown on dexamethasone-regulated gene expression", "setting": "[4]", "result": "alter dexamethasone-regulated gene expression"}]}]}
